Test results: patent publication US4341768A, “Antibiotic compounds” (priority 1981, dated 1982)
Bridge positions count the residues as written; N and C are the ends. Square brackets hold non-standard residues; d marks the D form. Peptide text beside a SMILES is read from it. * marks the point of attachment. X1 = CCC(C)CCCCC(O)CC(=O)*; dDab = NCC[C@@H](N)C(=O)O; Dab = NCC[C@H](N)C(=O)O

Key:
Acute toxicity in mice = format: in vivo; conditions: for LD50: mouse, in vivo
Method: The acute toxicities of Bu-2470 A and B1 were determined in mice by intravenous(iv) and subcutaneous (sc) routes. Colistin was tested comparatively as a reference compound.

For `CCC(C)CCCCC(O)CC(=O)N[C@H](CCN)C(=O)N[C@H]1CCNC(=O)[C@H](CC(C)C)NC(=O)[C@H](CCN)NC(=O)[C@H](CCN)NC(=O)[C@H](CC(C)C)NC(=O)[C@@H](Cc2ccccc2)NC(=O)[C@H](CCN)NC1=O` (stereo partly drawn) [Bu-2470B1] (X1-[dDab][Dab][Dab][dF]L[Dab][Dab]L; lactam 2-C), the “Acute toxicity relative to colistin” value (Acute toxicity in mice; iv route) was “less toxic than colistin”, the LD50 (Acute toxicity in mice; intravenous) was 35 mg/kg and the LD50 (Acute toxicity in mice; sc, subcutaneous) was 280 mg/kg. For the same compound, the “Acute toxicity relative to colistin” value (Acute toxicity in mice; sc route) was “less toxic than colistin”.

For `CC(C)C[C@@H]1NC(=O)[C@H](CCN)NC(=O)[C@H](CCN)NC(=O)[C@H](CC(C)C)NC(=O)[C@@H](Cc2ccccc2)NC(=O)[C@H](CCN)NC(=O)[C@@H](NC(=O)[C@H](N)CCN)CCNC1=O` [Bu-2470A] (H-[dDab][Dab][Dab][dF]L[Dab][Dab]L; lactam 2-C), the “Acute toxicity relative to colistin” value (Acute toxicity in mice; iv route) was “less toxic than colistin”, the LD50 (Acute toxicity in mice; intravenous) was 35 mg/kg and the LD50 (Acute toxicity in mice; sc, subcutaneous) was 56 mg/kg. For the same compound, the “Acute toxicity relative to colistin” value (Acute toxicity in mice; sc route) was “more toxic”, the “Solubility in aqueous lower alcohols, aqueous dioxane, dimethylsulfoxide and dimethylformamide” value (Solubility; aqueous lower alcohols, aqueous dioxane, dimethylsulfoxide, dimethylformamide) was “readily soluble” and the “Solubility in lower alcohols” value (Solubility; lower alcohols) was “slightly soluble”. For the same compound, the “Solubility in other organic solvents” value (Solubility; other organic solvents) was “practically insoluble” and the Solubility in water (Solubility; water over a wide pH range) was “readily soluble”.
